Several values for one entry are separate records, joined by “and”; a condition that tells them apart may be missing. Equal values may be shown once. Read-outs that look alike come from different tables or passages of the source.
Key:
Format in all cases: cell-based
[1] = system: p53 luciferase transcriptional reporter in MFE319 cells; test: p53 luciferase reporter assay; settings: for p53 luciferase reporter signal (normalized), replicates: MFE319
Method: (§1) Huh7 and MFE319 cell lines stably expressing a p53 reporter (Addgene, 90363)[59] were generated. Cells were plated in 384-well plates (1,500 cells per well) and treated with varying concentrations of compound. Then, 16 h after treatment, firefly luciferase substrate was added to the cells and luminescence was monitored using an EnVision 2105 multimode plate reader.

[2] = system: p53 luciferase transcriptional reporter in Huh7 cells; test: p53 luciferase reporter assay; settings: for p53 luciferase reporter signal (normalized), replicates: Huh7
Method: as §1

[3] = system: Halo–p53-Y220C ΔTAD–mCherry 293T cells; test: caspase 3/7 glo; settings: for mean_norm (caspase 3/7 glo): Cell_Line Y220C, normalized to Concentration 0; for raw caspase 3/7 glo signal, single replicate: Y220C
Method: (§2) Cells were plated in 384-well plates (typically 1,500 cells per well) with varying concentrations of compounds with a total volume of 50 μl per well. After 1 day, caspase 3/7 glo reagent (Promega) was added following the manufacturer’s protocol and read out using an EnVision 2105 multimode plate reader.

parental 293T cells = test: caspase 3/7 glo; settings: for mean_norm (caspase 3/7 glo): Cell_Line WT, normalized to Concentration 0; for raw caspase 3/7 glo signal, single replicate: WT
Method: as §2

[4] = CellTiter-Glo cell viability; settings: human, p53_construct WT, CTG 4 days, read-out: mean (normalized viability)
Method: Cells were plated in 384-well plates (typically 1,500 cells per well) with varying concentrations of compounds, with a total volume of 50 μl per well. CTG reagent was added (25 μl) to the solutions, mixed and read out using an EnVision 2105 multimode plate reader.

[5] = system: Halo–p53-Y220C ΔTAD–mCherry 293T cells versus parental 293T cells; test: flow-cytometry growth competition; settings: for normalized_mCherry_percentage: Y220C, day 8, normalized to DMSO
Method: (§3) Cells with and without a fluorescent marker (for example, Halo–p53–mCherry) were mixed and the resulting solution was plated in six-well plates or 10-cm dishes at low density; compound was added at varying concentrations. After reaching confluence, cells were passaged and retreated with compound if needed. Otherwise, cells were trypsinized, washed and resuspended in complete growth medium in 96-well plates or tubes for flow cytometry. Untreated cell mixtures were used to establish gates separating the fluorophore^+/− populations. Analysis was conducted on a CytoFLEX LX flow cytometer.

[6] = system: Calu-1 cells stably expressing Halo–p53-R273H (FL)–mCherry versus parental Calu-1 cells; test: flow-cytometry growth competition; settings: sheet S2E
Method: as §3

[7] = system: MFE319 cells stably expressing sgTP53–Cas9–EGFP versus parental MFE319 cells; test: flow-cytometry growth competition
Method: as §3

CC[C@@H]1C(=O)N(C)c2cnc(Nc3ccc(C(=O)NC4CCN(C)CC4)cc3OC)nc2N1C1CCCC1 [BI2536]
induction of p53 reporter ([1]; 16 h): no induction of luciferase activity
p53 luciferase reporter signal (normalized), replicates ([1]; log Concentration (pM) 1.68867): 0.8432 and 0.8795 and 0.997
p53 luciferase reporter signal (normalized), replicates ([1]; log Concentration (pM) 1.9897): 1.008 and 0.9306 and 1.09
p53 luciferase reporter signal (normalized), replicates ([1]; log Concentration (pM) 2.29073): 0.7831 and 0.9939 and 0.826
p53 luciferase reporter signal (normalized), replicates ([1]; log Concentration (pM) 2.59176): 1.029 and 1.032 and 0.9459
p53 luciferase reporter signal (normalized), replicates ([1]; log Concentration (pM) 2.89279): 0.8553 and 0.942 and 1.018
p53 luciferase reporter signal (normalized), replicates ([1]; log Concentration (pM) 3.19382): 0.956 and 0.9365 and 0.9572
p53 luciferase reporter signal (normalized), replicates ([1]; log Concentration (pM) 3.49485): 0.8748 and 0.9709 and 0.8007
p53 luciferase reporter signal (normalized), replicates ([1]; log Concentration (pM) 3.79588): 0.8943 and 0.9669 and 0.8623
p53 luciferase reporter signal (normalized), replicates ([1]; log Concentration (pM) 4.09691): 0.6004 and 0.8065 and 0.6757
p53 luciferase reporter signal (normalized), replicates ([1]; log Concentration (pM) 4.39794): 0.6617 and 0.6465 and 0.5696
p53 luciferase reporter signal (normalized), replicates ([1]; log Concentration (pM) 4.69897): 0.5274 and 0.6902 and 0.6941
p53 luciferase reporter signal (normalized), replicates ([1]; log Concentration (pM) 5): 0.7269 and 0.634 and 0.6632
induction of p53 reporter ([2]; 16 h, PMV6 at doses of 1.25–10 μM): no such effect
p53 luciferase reporter signal (normalized), replicates ([2]; log Concentration (pM) 1.68867): 1.071 and 1.082 and 0.9754
p53 luciferase reporter signal (normalized), replicates ([2]; log Concentration (pM) 1.9897): 0.9944 and 0.9877 and 0.9088
p53 luciferase reporter signal (normalized), replicates ([2]; log Concentration (pM) 2.29073): 0.9631 and 0.9698 and 0.9782
p53 luciferase reporter signal (normalized), replicates ([2]; log Concentration (pM) 2.59176): 1.0179 and 0.8887 and 0.8977
p53 luciferase reporter signal (normalized), replicates ([2]; log Concentration (pM) 2.89279): 1.088 and 0.9771 and 0.9776
p53 luciferase reporter signal (normalized), replicates ([2]; log Concentration (pM) 3.19382): 1.04 and 1.0179 and 1.023
p53 luciferase reporter signal (normalized), replicates ([2]; log Concentration (pM) 3.49485): 0.8529 and 0.9603 and 1.044
p53 luciferase reporter signal (normalized), replicates ([2]; log Concentration (pM) 3.79588): 0.8775 and 0.9273 and 0.8786
p53 luciferase reporter signal (normalized), replicates ([2]; log Concentration (pM) 4.09691): 0.9161 and 0.9032 and 0.92
p53 luciferase reporter signal (normalized), replicates ([2]; log Concentration (pM) 4.39794): 0.8747 and 0.91 and 0.9648
p53 luciferase reporter signal (normalized), replicates ([2]; log Concentration (pM) 4.69897): 0.9245 and 0.9167 and 0.9228
p53 luciferase reporter signal (normalized), replicates ([2]; log Concentration (pM) 5): 0.7964 and 0.863 and 0.8635
mean_norm (caspase 3/7 glo) ([3]; Concentration 0.0195312): 0.7877
mean_norm (caspase 3/7 glo) ([3]; Concentration 0.0390625): 0.7982
mean_norm (caspase 3/7 glo) ([3]; Concentration 0.078125): 0.8973
mean_norm (caspase 3/7 glo) ([3]; Concentration 0.15625): 0.6969
mean_norm (caspase 3/7 glo) ([3]; Concentration 0.3125): 0.7125
mean_norm (caspase 3/7 glo) ([3]; Concentration 0.625): 0.7879
mean_norm (caspase 3/7 glo) ([3]; Concentration 1.25): 1.419
mean_norm (caspase 3/7 glo) ([3]; Concentration 2.5): 1.997
mean_norm (caspase 3/7 glo) ([3]; Concentration 5): 1.954
mean_norm (caspase 3/7 glo) ([3]; Concentration 10): 2.025
raw caspase 3/7 glo signal, single replicate ([3]; Concentration 19.5312): 115256 and 127200 and 115855 and 132591
raw caspase 3/7 glo signal, single replicate ([3]; Concentration 39.0625): 137775 and 105993 and 131607 and 122061
raw caspase 3/7 glo signal, single replicate ([3]; Concentration 78.125): 135249 and 137668 and 143467 and 142866
raw caspase 3/7 glo signal, single replicate ([3]; Concentration 156.25): 101297 and 110278 and 108541 and 114189
raw caspase 3/7 glo signal, single replicate ([3]; Concentration 312.5): 98096 and 116170 and 98914 and 130859
raw caspase 3/7 glo signal, single replicate ([3]; Concentration 625): 117128 and 121353 and 128759 and 123804
raw caspase 3/7 glo signal, single replicate ([3]; Concentration 1250): 212391 and 226804 and 198553 and 246616
raw caspase 3/7 glo signal, single replicate ([3]; Concentration 2500): 314760 and 286983 and 322612 and 319985
raw caspase 3/7 glo signal, single replicate ([3]; Concentration 5000): 280409 and 304325 and 302507 and 330408
raw caspase 3/7 glo signal, single replicate ([3]; Concentration 10000): 320499 and 297797 and 322913 and 320880
mean_norm (caspase 3/7 glo) (parental 293T cells; Concentration 0.0195312): 0.9498
mean_norm (caspase 3/7 glo) (parental 293T cells; Concentration 0.0390625): 0.9355
mean_norm (caspase 3/7 glo) (parental 293T cells; Concentration 0.078125): 1.009
mean_norm (caspase 3/7 glo) (parental 293T cells; Concentration 0.15625): 0.7951
mean_norm (caspase 3/7 glo) (parental 293T cells; Concentration 0.3125): 0.7961
mean_norm (caspase 3/7 glo) (parental 293T cells; Concentration 0.625): 0.9439
mean_norm (caspase 3/7 glo) (parental 293T cells; Concentration 1.25): 1.163
mean_norm (caspase 3/7 glo) (parental 293T cells; Concentration 2.5): 1.635
mean_norm (caspase 3/7 glo) (parental 293T cells; Concentration 5): 1.96
mean_norm (caspase 3/7 glo) (parental 293T cells; Concentration 10): 2.136
raw caspase 3/7 glo signal, single replicate (parental 293T cells; Concentration 19.5312): 101820 and 113248 and 111453 and 123771
raw caspase 3/7 glo signal, single replicate (parental 293T cells; Concentration 39.0625): 126417 and 91473 and 129554 and 96056
raw caspase 3/7 glo signal, single replicate (parental 293T cells; Concentration 78.125): 125458 and 106940 and 132813 and 113259
raw caspase 3/7 glo signal, single replicate (parental 293T cells; Concentration 156.25): 92236 and 94370 and 93114 and 97215
raw caspase 3/7 glo signal, single replicate (parental 293T cells; Concentration 312.5): 90006 and 94305 and 93528 and 99564
raw caspase 3/7 glo signal, single replicate (parental 293T cells; Concentration 625): 118546 and 104034 and 117323 and 107564
raw caspase 3/7 glo signal, single replicate (parental 293T cells; Concentration 1250): 131108 and 131356 and 152167 and 136802
raw caspase 3/7 glo signal, single replicate (parental 293T cells; Concentration 2500): 182654 and 187485 and 215491 and 189535
raw caspase 3/7 glo signal, single replicate (parental 293T cells; Concentration 5000): 226831 and 221170 and 240802 and 240601
raw caspase 3/7 glo signal, single replicate (parental 293T cells; Concentration 10000): 259590 and 240701 and 269097 and 243095
viability at 4 days ([4]; Compound_conc 0.0488281): 97%
viability at 4 days ([4]; Compound_conc 0.0976562): 111%
viability at 4 days ([4]; Compound_conc 0.195312): 98.9%
viability at 4 days ([4]; Compound_conc 0.390625): 103%
viability at 4 days ([4]; Compound_conc 0.78125): 103%
viability at 4 days ([4]; Compound_conc 1.5625): 105%
viability at 4 days ([4]; Compound_conc 3.125): 101%
viability at 4 days ([4]; Compound_conc 6.25): 80.9%
viability at 4 days ([4]; Compound_conc 12.5): 64.4%
viability at 4 days ([4]; Compound_conc 25): 62.4%
viability at 4 days ([4]; Compound_conc 50): 49.4%
viability at 4 days ([4]; Compound_conc 100): 42%
activity / difference in cell survival in competition ([5]; 8-day competition): did not observe any activity
normalized_mCherry_percentage ([5]; 0.02 nM): 98.51%
normalized_mCherry_percentage ([5]; 0.2 nM): 98.69%
normalized_mCherry_percentage ([5]; 1 nM): 100.1%
normalized_mCherry_percentage ([5]; 5 nM): 117.7%
mCherry_percent ([6]; 0.1 nM): 80.66%
mCherry_percent ([6]; 1 nM): 80.59%
mCherry_percent ([6]; 10 nM): 80.93%
merge_avg (growth competition, sheet 4H) ([7]; Concentration (pM) 19.5312): 0.9382
merge_avg (growth competition, sheet 4H) ([7]; Concentration (pM) 78.125): 0.9005
merge_avg (growth competition, sheet 4H) ([7]; Concentration (pM) 312.5): 0.9194
merge_avg (growth competition, sheet 4H) ([7]; Concentration (pM) 1250): 0.8118
enrichment of EGFP^+ (TP53-knockout) population ([7]; day 9, p53-01 at doses between 800 nM and 1.25 μM): no such activity
